Experimental data reported in patent US9174980B2, “Heterocyclic compounds as inhibitors of leukotriene production” (Boehringer Ingelheim International GmbH, priority 2012, dated 2015).

Key:
[1] = test system: synthesis of LTB4 in human whole blood; assay: Human whole blood assay (calcimycin-stimulated LTB4 synthesis); format: cell-based; details: Homo sapiens; read-out: Human Whole Blood LTB4 Assay for FLAP (IC50 nM)
How it was run: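 Steps: compound plus heparinized human whole blood, 15 min at 37° C; add calcimycin to 20 μM final; incubate another 30 min at 37° C; centrifuge at low speed and collect plasma; measure LTB4 with a homogeneous time-resolved fluorescence immunoassay.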

[2] = target: T1, recombinant human FLAP protein (Homo sapiens, UniProt P20292); assay: FLAP binding assay (Scintillation Proximity Assay, displacement of [125I]L-691,831); details: read-out: Human FLAP SPA Binding (IC50 nM)
T1 construct: made in house; host or cells: Sf9 insect cells (membrane fraction, 100,000 x g pellet)
T1 sequence (P20292 1-161): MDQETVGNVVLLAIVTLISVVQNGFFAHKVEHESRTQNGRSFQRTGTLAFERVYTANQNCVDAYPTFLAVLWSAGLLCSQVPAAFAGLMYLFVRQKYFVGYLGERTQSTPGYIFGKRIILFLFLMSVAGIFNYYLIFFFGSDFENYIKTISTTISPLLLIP
How it was run: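 Scintillation proximity displacement format: 0.08 nM iodinated MK-591 analog [125I]L-691,831 competes with test compound for human FLAP in sf9 insect-cell membranes (5 μg/well, WGA beads), 2 h with shaking, pH 7.5 Tris buffer. 10 μM cold L-691,831 defines non-specific binding.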

SMILES | IC50 [1] | IC50 [2]
CC(C)C(C)(c1ccc(-c2cnc(N)nc2)cc1)c1c[nH]c2cc(-c3nnn[nH]3)ccc12 (centres unmarked) [Example 68, 5-(4-[3-methyl-2-[6-(1H-tetrazol-5-yl)-1H-indol-3-yl]butan-2-yl}phenyl)pyrimidin-2-amine] | > 5000 nM | 1 nM
Nc1ncc(-c2ccc(C3(c4nnc(-c5ccccc5)[nH]4)CCOCC3)cc2)cn1 [Example 69, 5-{4-[4-(5-phenyl-4H-1,2,4-triazol-3-yl)tetrahydro-2H-pyran-4-yl]phenyl}pyrimidin-2-amine] | 3100 nM | 120 nM
COC(=O)c1ccc2c(C(C)(c3ccc(-c4cnc(N)nc4)cc3)C(C)C)c[nH]c2c1 (centres unmarked) [Example 70, methyl 3-{2-[4-(2-aminopyrimidin-5-yl)phenyl]-3-methylbutan-2-yl}-1H-indole-6-carboxylate] | 240 nM | 0.9 nM
CC(C)C(C)(c1ccc(-c2ccc(N)nc2)cc1)c1c[nH]c2cc(-c3nnc(N)o3)ccc12 (centres unmarked) [Example 71, 5-(4-{2-[6-(5-amino-1,3,4-oxadiazol-2-yl)-1H-indol-3-yl]-3-methylbutan-2-yl}phenyl)pyridin-2-amine] | 1900 nM | 0.72 nM
Cn1ccc(C(O)(c2ccc(-c3cnc(N)nc3)cc2)C(C)(C)C)n1 (centres unmarked) [Example 72, 1-[4-(2-aminopyrimidin-5-yl)phenyl]-2,2-dimethyl-1-(1-methyl-1H-pyrazol-3-yl)propan-1-ol] | 2100 nM | 110 nM
CC(C)C(C)(c1ccc(-c2cnc(N)nc2)cc1)c1cn(Cc2nnn[nH]2)c2ccccc12 (centres unmarked) [Example 73, 5-(4-{3-methyl-2-[1-(1H-tetrazol-5-ylmethyl)-1H-indol-3-yl]butan-2-yl}phenyl)pyrimidin-2-amine] | > 5000 nM | 1.3 nM
Nc1ncc(-c2ccc(C3(c4n[nH]c(-c5cccnc5)n4)CCOCC3)cc2)cn1 [Example 74, 5-(4-{4-[5-(pyridin-3-yl)-1H-1,2,4-triazol-3-yl]tetrahydro-2H-pyran-4-yl}phenyl)pyrimidin-2-amine] | 3500 nM | 780 nM
Nc1ncc(-c2ccc(C3(c4nc5ccccc5[nH]4)CCOCC3)cc2)cn1 [Example 75, 5-{4-[4-(1H-benzimidazol-2-yl)tetrahydro-2H-pyran-4-yl]phenyl}pyrimidin-2-amine] | > 5000 nM | 380 nM

The remaining lines, values ahead:

IC50 [1] | IC50 [2] | SMILES
250 nM | 1.1 nM | CC(C)C(C)(c1ccc(-c2cnc(N)nc2)cc1)c1c[nH]c2c(-c3nnc(N)o3)cccc12 (centres unmarked) [Example 76, 5-(4-{2-[7-(5-amino-1,3,4-oxadiazol-2-yl)-1H-indol-3-yl]-3-methylbutan-2-yl}phenyl)pyrimidin-2-amine]
640 nM | 1.7 nM | CC(C)C(C)(c1ccc(-c2cnc(N)nc2)cc1)c1c[nH]c2cc(C(=O)N3CCOCC3)ccc12 (centres unmarked) [Example 77, (3-{2-[4-(2-aminopyrimidin-5-yl)phenyl]-3-methylbutan-2-yl}-1H-indol-6-yl)(morpholin-4-yl)methanone]
> 5000 nM | 1.6 nM | CC(C)C(C)(c1ccc(-c2cnc(N)nc2)cc1)c1c[nH]c2cc(C(=O)N3CC(O)C3)ccc12 (centres unmarked) [Example 78, (3-{2-[4-(2-aminopyrimidin-5-yl)phenyl]-3-methylbutan-2-yl}-1H-indol-6-yl)(3-hydroxyazetidin-1-yl)methanone]
2600 nM | 8.5 nM | CC(C)C(C)(c1ccc(-c2cnc(N)nc2)cc1)c1c[nH]c2cc(C(=O)N(C)CCO)ccc12 (centres unmarked) [Example 79, 3-{2-[4-(2-aminopyrimidin-5-yl)phenyl]-3-methylbutan-2-yl}-N-(2-hydroxyethyl)-N-methyl-1H-indole-6-carboxamide]
> 5000 nM | 1.6 nM | CC(C)C(C)(c1ccc(-c2cnc(N)nc2)cc1)c1c[nH]c2cc(C(=O)N3CCC(O)C3)ccc12 (centres unmarked) [Example 80, (3-{2-[4-(2-aminopyrimidin-5-yl)phenyl]-3-methylbutan-2-yl}-1H-indol-6-yl)(3-hydroxypyrrolidin-1-yl)methanone]
